Results reported in patent EP4582413A1, “ARYLTETRAHYDROPYRIDINE COMPOUND AND PEST CONTROL AGENT” (priority 2022, dated 2024).

Columns and labels:
Type in all cases: in vivo
[1] = system: Trichostrongylus axei; experiment: Effect test for Trichostrongylus axei; parameters: concentration or dose not given beside the values; settings: test chemical solution B added to eggs in 96-well plate, unhatched eggs and inactive larvae counted 4 days after addition, 25°C, relative to untreated plot
Description: Agar medium with 1% potato dextrose was aliquoted into 60-µl portions in a 96-well plate, and 30 µl of sterilized water containing Trichostrongylus axei eggs and a freeze-dried Escherichia coli OP50 strain (five eggs, 10 µg/10 µl Escherichia coli) was added to each well. From above, 10 µl of test chemical solution B of the presently invented compound was added to each well, and the plate was left to stand under dark conditions at 25°C.

[2] = system: brown rice planthoppers (Nilaparvata lugens); experiment: Insecticidal test for brown rice planthoppers; settings: Nilaparvata lugens, 144 h; 500 ppm chemical solution, rice leaf sheaths soaked, third-instar larvae, six days, 25°C; read-out: death rate
Description: A 10% by mass emulsion of the presently invented compound prepared according to the above formulation example for an emulsion was diluted with water containing a spreader to prepare a chemical solution having a concentration of 500 ppm. Rice leaf sheaths were soaked in the chemical solution for approximately 10 seconds. After the completion of the soaking operation, the rice leaf sheaths treated with the chemical solution were air-dried, and then put in test tubes. Into each test tube, five third-instar brown rice planthoppers (Nilaparvata lugens) larvae were released, and the test tubes were capped with sponge and accommodated in a thermostatic room at 25°C. Six days after the accommodation, the number of dead brown rice planthoppers individuals in the test tubes were examined, and the death rate was calculated from a calculation formula shown below. The test was carried out in duplicate. [formula]

[3] = system: western flower thrips (Frankliniella occidentalis); experiment: Insecticidal activity against western flower thrips; settings: Frankliniella occidentalis, 48 h; 500 ppm chemical solution sprinkled (2.5 mg/cm^2), larvae on common bean leaf, after 2 days; read-out: death rate
Description: Wet filter paper was laid on each styrol cup having an inner diameter of 7 cm, and a common bean leaf cut into a 3 cm square was placed thereon, and inoculated with 20 western flower thrips (Frankliniella occidentalis) larvae. A 10% by mass emulsion of the presently invented compound prepared according to the above formulation example for an emulsion was diluted with water containing a spreader to prepare a chemical solution having a concentration of 500 ppm. For each styrol cup, 2.5 ml of the chemical solution prepared was sprinkled (2.5 mg/cm^2) with a rotary tower sprinkler. […] The test was carried out in duplicate.

[4] = system: diamondback moths (Plutella xylostella); experiment: Insecticidal test for diamondback moths; settings: Plutella xylostella, 144 h; 500 ppm chemical solution, leaves soaked, third-instar larvae, six days, 25°C; read-out: death rate
Description: A 10% by mass emulsion of the presently invented compound prepared according to the above formulation example for an emulsion was diluted with water containing a spreader to prepare a chemical solution having a concentration of 500 ppm. Chinese olive leaves were soaked in the chemical solution for approximately 10 seconds. After the completion of the soaking operation, the Chinese olive leaves treated with the chemical solution were air-dried, and then put in dishes. Into each dish, five third-instar diamondback moths (Plutella xylostella) larvae were released, and the dishes were capped and accommodated in a thermostatic room at 25°C. […] The test was carried out in duplicate.

[5] = system: cat fleas (Ctenocephalides felis); experiment: whole plant or invertebrate; settings: 72 h, read-out: death rate
Description: In 1 ml of acetone, 1 mg of the presently invented compound was dissolved to prepare a chemical solution having a concentration of 1000 ppm. The bottom surface and side surface of each glass container having an inner wall surface area of 25 cm^2 were coated with 250 µl of the chemical solution, and acetone was then volatilized to form a thin film of the compound on the inner wall of the glass container.
Into each of the treated glass containers, five cat fleas (Ctenocephalides felis) imagoes (mixed-sex) were released, and the glass containers were capped and accommodated in a thermostatic room at 25°C. Three days after the release, the number of dead flea individuals were examined, and the death rate was calculated from the same calculation formula as in Test Example 1.

Compound | efficacy (%) [1] | mortality at 500 µg/mL [2] | mortality at 500 µg/mL [3] | mortality at 500 µg/mL [4] | mortality at 10 µg/cm2 [5]
O=C(Nc1ccc(F)c(F)c1)C1=C(O)CC(c2nc(-c3ccc(F)nc3)no2)NC1=O (stereo not shown) [3-274] | ≥ 50% | – | – | – | –
Cc1cnc(NC(=O)C2=C(O)CC(c3cnc(Cl)c(-c4ccc(F)nc4)c3)NC2=O)nc1 (stereo not shown) [2-120] | ≥ 50% | – | – | – | –
O=C(Nc1nc[nH]n1)C1=C(O)CC(c2cnc(Cl)c(-c3ccc(F)cc3)c2)NC1=O (stereo not shown) [2-291] | ≥ 50% | – | – | – | –
O=C(Nc1ccc(Br)c(F)n1)C1=C(O)CC(c2cnc(Cl)c(-c3ccc(F)nc3)c2)NC1=O (stereo not shown) [2-132] | ≥ 50% | – | – | – | –
Cn1ccc(-c2noc(C3CC(O)=C(C(=O)Nc4ccc(F)cn4)C(=O)N3)n2)n1 (stereo not shown) [3-085] | ≥ 50% | – | – | – | –
Cc1cccc(-c2cc(C3CC(O)=C(C(=O)Nc4ccn(C)n4)C(=O)N3)cnc2Cl)c1 (stereo not shown) [2-256] | ≥ 50% | – | – | – | –
O=C(Nc1ccc(Cl)cn1)C1=C(O)CC(c2nc(-c3ccc(F)nc3)no2)NC1=O (stereo not shown) [3-102] | ≥ 50% | – | – | – | –
Cc1ccnc(NC(=O)C2=C(O)CC(c3cnc(Cl)c(-c4ccc(F)nc4)c3)NC2=O)c1 (stereo not shown) [2-153] | ≥ 50% | – | – | – | –
O=C(Nc1ccc(Cl)nc1)C1=C(O)CC(c2cnc(C(F)(F)F)c(-c3ccc(F)nc3)c2)NC1=O (stereo not shown) [2-170] | ≥ 50% | – | – | – | –
O=C(Nc1ccc(C(F)(F)F)cn1)C1=C(O)CC(c2cnc(C(F)(F)F)c(-c3ccc(F)nc3)c2)NC1=O (stereo not shown) [2-179] | ≥ 50% | – | – | – | –
O=C(Nc1ccc(F)cn1)C1=C(O)CC(c2nc(-c3cc(F)c(F)c(F)c3)no2)NC1=O (stereo not shown) [3-138] | ≥ 50% | – | – | – | –
O=C(Nc1cnccn1)C1=C(O)CC(c2cnc(Cl)c(-c3ccc(F)nc3)c2)NC1=O (stereo not shown) [2-133] | ≥ 50% | – | – | – | –
O=C(Nc1ncc(Cl)cc1F)C1=C(O)CC(c2nc(-c3ccc(F)nc3)no2)NC1=O (stereo not shown) [3-271] | ≥ 50% | – | – | – | –
O=C(Nc1ccc(F)cn1)C1=C(O)CC(c2nc(-c3cncs3)no2)NC1=O (stereo not shown) [3-097] | ≥ 50% | – | – | – | –
O=C(Nc1ccc(Cl)cn1)C1=C(O)CC(c2cnc(Cl)c(-c3ccc(F)cc3)c2)NC1=O (stereo not shown) [2-220] | ≥ 50% | – | – | – | –
Cc1ccc(NC(=O)C2=C(O)CC(c3cnc(C(F)(F)F)c(-c4ccc(F)nc4)c3)NC2=O)nc1 (stereo not shown) [2-171] | ≥ 50% | – | – | – | –
Cn1nc(Cl)c(-c2noc(C3CC(O)=C(C(=O)Nc4ccccn4)C(=O)N3)n2)c1Cl (stereo not shown) [3-170] | ≥ 50% | – | – | – | –
O=C(Nc1ncc(F)cc1Cl)C1=C(O)CC(c2cnc(Cl)c(-c3ccc(F)nc3)c2)NC1=O (stereo not shown) [2-103] | ≥ 50% | – | – | – | –
CON=Cc1cccc(-c2noc(C3CC(O)=C(C(=O)Nc4ccc(F)cn4)C(=O)N3)n2)c1 (stereo not shown) [3-124] | ≥ 50% | – | – | – | –
O=C(Nc1ccc(F)cn1)C1=C(O)CC(c2nc(-c3cncc(F)c3)no2)NC1=O (stereo not shown) [3-083] | ≥ 50% | – | – | – | –

Compound | efficacy (%) [1] | mortality at 500 µg/mL [2] | mortality at 500 µg/mL [3] | mortality at 500 µg/mL [4] | mortality at 10 µg/cm2 [5]
O=C(Nc1ccc(F)cc1)C1=C(O)CC(c2nc(-c3cccc(Cl)c3)no2)NC1=O (stereo not shown) [3-029] | – | ≥ 90% | ≥ 90% | ≥ 90% | ≥ 50%
O=C(Nc1ccc(F)cc1)C1=C(O)CC(c2ccc(C(F)(F)F)c(-c3cncc(F)c3)c2)NC1=O (stereo not shown) [1-002] | – | ≥ 90% | ≥ 90% | ≥ 90% | ≥ 50%
N#Cc1ccc(NC(=O)C2=C(O)CC(c3cnc(Cl)c(-c4ccc(F)nc4)c3)NC2=O)cn1 (stereo not shown) [2-013] | – | ≥ 90% | ≥ 90% | ≥ 90% | ≥ 50%
O=C(Nc1cc(F)ccn1)C1=C(O)CC(c2nc(-c3cscc3Cl)no2)NC1=O (stereo not shown) [3-234] | – | ≥ 90% | ≥ 90% | ≥ 90% | ≥ 50%
N#Cc1ccc(NC(=O)C2=C(O)CC(c3cnc(Cl)c(-c4ccccc4)c3)NC2=O)cc1 (stereo not shown) [2-090] | – | ≥ 90% | ≥ 90% | ≥ 90% | ≥ 50%
N#Cc1ccc(NC(=O)C2=C(O)CC(c3cnc(Cl)c(-c4ccccc4)c3)NC2=O)cn1 (stereo not shown) [2-093] | – | ≥ 90% | ≥ 90% | ≥ 90% | ≥ 50%
O=C(Nc1cc(C(F)(F)F)ccn1)C1=C(O)CC(c2cnc(Cl)c(-c3cnccc3F)c2)NC1=O (stereo not shown) [2-145] | – | ≥ 90% | ≥ 90% | ≥ 90% | ≥ 50%
O=C(Nc1ccc(F)cn1)C1=C(O)CC(c2nc(-c3ccnc(F)c3)no2)NC1=O (stereo not shown) [3-036, N-(5-fluoropyridin-2-yl)-6-(3-(2-fluoropyridin-4-yl)-1,2,4-oxadiazol-5-yl)-4-hydroxy-2-oxo-1,2,5,6-tetrahydropyridine-3-carboxamide] | – | ≥ 90% | ≥ 90% | ≥ 90% | ≥ 50%
O=C(Nc1ccccn1)C1=C(O)CC(c2nc(-c3ccnc(F)c3)no2)NC1=O (stereo not shown) [3-065] | – | ≥ 90% | ≥ 90% | ≥ 90% | ≥ 50%
O=C(Nc1cc(Br)c(F)cn1)C1=C(O)CC(c2cnc(Cl)c(-c3cnccc3F)c2)NC1=O (stereo not shown) [2-140] | – | ≥ 90% | ≥ 90% | ≥ 90% | ≥ 50%
Cc1cccc(-c2cc(C3CC(O)=C(C(=O)Nc4ccc(F)cc4)C(=O)N3)cnc2Cl)c1 (stereo not shown) [2-263] | – | ≥ 90% | ≥ 90% | ≥ 90% | ≥ 50%
O=C(Nc1cc(Br)cc(F)n1)C1=C(O)CC(c2cnc(Cl)c(-c3cnccc3F)c2)NC1=O (stereo not shown) [2-138] | – | ≥ 90% | ≥ 90% | ≥ 90% | ≥ 50%
O=C(Nc1ccc(F)cc1)C1=C(O)CC(c2nc(-c3ccccc3)no2)NC1=O (stereo not shown) [3-001] | – | ≥ 90% | ≥ 90% | ≥ 90% | ≥ 50%
O=C(Nc1ccccn1)C1=C(O)CC(c2cnc(Cl)c(-c3ccc(F)nc3)c2)NC1=O (stereo not shown) [2-096] | – | ≥ 90% | ≥ 90% | ≥ 90% | ≥ 50%
O=C(Nc1ccc(F)cc1)C1=C(O)CC(c2nc(-c3ccncc3)no2)NC1=O (stereo not shown) [3-031] | – | ≥ 90% | ≥ 90% | ≥ 90% | ≥ 50%
O=C(Nc1ccc(F)cc1)C1=C(O)CC(c2nc(-c3cccnc3)no2)NC1=O (stereo not shown) [3-007] | – | ≥ 90% | ≥ 90% | ≥ 90% | ≥ 50%
Cc1cccc(-c2noc(C3CC(O)=C(C(=O)Nc4ccc(F)cc4)C(=O)N3)n2)c1 (stereo not shown) [3-030] | – | ≥ 90% | ≥ 90% | ≥ 90% | ≥ 50%
O=C(Nc1ccccn1)C1=C(O)CC(c2nc(-c3ccc(F)cc3)no2)NC1=O (stereo not shown) [3-184] | – | ≥ 90% | ≥ 90% | ≥ 90% | ≥ 50%
O=C(Nc1cnccn1)C1=C(O)CC(c2cnc(Cl)c(-c3cncc(Cl)c3)c2)NC1=O (stereo not shown) [2-147] | – | ≥ 90% | ≥ 90% | ≥ 90% | ≥ 50%
O=C(Nc1ccccn1)C1=C(O)CC(c2nc(-c3snc(Cl)c3Cl)no2)NC1=O (stereo not shown) [3-263] | – | ≥ 90% | ≥ 90% | ≥ 90% | ≥ 50%
